Measurements taken from ChEMBL document CHEMBL1201862, “PubChem BioAssay data set” (2004).
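Where inhibition never reached the appropriate level, the endpoint shown equals the highest concentration tested. Otherwise, values were interpolated linearly from a five-concentration, 48-hour dose response in 96-well plates. At the GI50, growth is halved.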 Activity calls are given as the source filed them. Rule as the data show it: active = GI50 up to about 1.1 µM and inactive = higher.

Experiments:
Test in all cases: NCI tumour cell line growth inhibition, 48 h
[1] = tested on: 786-0
[2] = tested on: A498
[3] = tested on: A549
[4] = tested on: HOP-92
[5] = tested on: KM-20L2
[6] = tested on: MOLT-4
[7] = tested on: NCI-H23
[8] = tested on: NCI-H460
[9] = tested on: NCI-H522
[10] = tested on: OVCAR-3
[11] = tested on: SK-MEL-28
[12] = tested on: SK-MEL-5
[13] = tested on: SN12C
[14] = tested on: SNB-75
[15] = tested on: TK-10
[16] = tested on: UACC-257
[17] = tested on: Hs-578T
[18] = tested on: MCF7
[19] = tested on: MDA-N
[20] = tested on: PC-3

Row | SMILES | GI50 [1] | GI50 [2] | GI50 [3] | GI50 [4] | GI50 [5] | GI50 [6] | GI50 [7] | GI50 [8] | GI50 [9] | GI50 [10] | GI50 [11] | GI50 [12] | GI50 [13] | GI50 [14] | GI50 [15] | GI50 [16] | GI50 [17] | GI50 [18] | GI50 [19] | GI50 [20]
1 | CCOC(=O)C(CCCNC(=O)OC(C)(C)C)N(Cc1ccc(OC)cc1OC)C(=O)CC(=O)CP(=O)(OCC)OCC (stereo not given) | > 100 µM (inactive) | > 100 µM (inactive) | > 100 µM (inactive) | 16.2 µM (inactive) | > 100 µM (inactive) | 56.5 µM (inactive) | > 100 µM (inactive) | > 100 µM (inactive) | 29 µM (inactive) | > 100 µM (inactive) | > 100 µM (inactive) | > 100 µM (inactive) | > 100 µM (inactive) | > 100 µM (inactive) | > 100 µM (inactive) | > 100 µM (inactive) |  |  |  | 
2 | O=C1c2ccccc2N2OC3(N4CCCC4)CCCCC3C12c1ccccc1 (stereo not given) | 17.7 µM (inactive) | > 100 µM (inactive) | 21 µM (inactive) | 16.1 µM (inactive) | 43.5 µM (inactive) | 35.7 µM (inactive) | 20.1 µM (inactive) |  | 14.9 µM (inactive) |  | 25.4 µM (inactive) | 15.1 µM (inactive) | 16.9 µM (inactive) | 34.1 µM (inactive) |  | 19.3 µM (inactive) |  |  |  | 
3 | CCn1c2ccccc2c2c(-c3ccccc3)cc3c(c21)C(=O)N(c1ccccc1)C3=O | > 100 µM (inactive) | > 100 µM (inactive) | > 100 µM (inactive) | 34.4 µM (inactive) | > 100 µM (inactive) | > 100 µM (inactive) | > 100 µM (inactive) | 36.6 µM (inactive) | > 100 µM (inactive) | > 100 µM (inactive) | > 100 µM (inactive) | > 100 µM (inactive) | 91 µM (inactive) | 89.5 µM (inactive) | > 100 µM (inactive) | > 100 µM (inactive) |  |  |  | 
4 | CCOC(=O)CNC(SC)=C(C#N)C#N | > 100 µM (inactive) | > 100 µM (inactive) | > 100 µM (inactive) | > 100 µM (inactive) | > 100 µM (inactive) | > 100 µM (inactive) | > 100 µM (inactive) | > 100 µM (inactive) | > 100 µM (inactive) | > 100 µM (inactive) |  | > 100 µM (inactive) | > 100 µM (inactive) | > 100 µM (inactive) | > 100 µM (inactive) | > 100 µM (inactive) |  |  |  | 
5 | Cc1[nH]c2c(C)cccc2c1C1Cc2ccccc2N1 (stereo not given) | 22.3 µM (inactive) | 28.6 µM (inactive) | 21.7 µM (inactive) | 0.0214 µM (active) | 17.1 µM (inactive) | 20.5 µM (inactive) | 20.3 µM (inactive) | 25.1 µM (inactive) | 19.5 µM (inactive) | 16.7 µM (inactive) | 18.8 µM (inactive) | 18.5 µM (inactive) | 21.2 µM (inactive) | > 100 µM (inactive) | 23 µM (inactive) | 22.3 µM (inactive) |  |  |  | 
6 | CCCCCCCCCCCCCC(=O)NCC(OCC)OCC | > 100 µM (inactive) | > 100 µM (inactive) | > 100 µM (inactive) | > 100 µM (inactive) | > 100 µM (inactive) |  | > 100 µM (inactive) | > 100 µM (inactive) | > 100 µM (inactive) | > 100 µM (inactive) | > 100 µM (inactive) | > 100 µM (inactive) | > 100 µM (inactive) | > 100 µM (inactive) | > 100 µM (inactive) | > 100 µM (inactive) |  |  |  | 
7 | O=C(CCc1nnc2s/c(=C\c3ccc(Cl)cc3Cl)c(=O)n12)Nc1cc(Cl)c(Cl)cc1Cl | > 10 µM (inactive) | > 10 µM (inactive) | > 10 µM (inactive) | 24 µM (inactive) | > 10 µM (inactive) | > 10 µM (inactive) | > 10 µM (inactive) | > 10 µM (inactive) | 2.31 µM (inactive) | > 10 µM (inactive) | > 10 µM (inactive) | > 10 µM (inactive) | > 10 µM (inactive) | 29 µM (inactive) | 55.7 µM (inactive) | > 10 µM (inactive) |  |  |  | 
8 | COc1ccc(NC(=O)c2oc3cc(O)ccc3c(=O)c2C)c([N+](=O)[O-])c1 | > 100 µM (inactive) | > 100 µM (inactive) | > 100 µM (inactive) | > 100 µM (inactive) | > 100 µM (inactive) | > 100 µM (inactive) | > 100 µM (inactive) | > 100 µM (inactive) | > 100 µM (inactive) | > 100 µM (inactive) | > 100 µM (inactive) | > 100 µM (inactive) | > 100 µM (inactive) | > 100 µM (inactive) | > 100 µM (inactive) | > 100 µM (inactive) |  |  |  | 
9 | COCC1N=C(c2cc(OC)c(OC)c(OC)c2-c2cc3c(cc2C2OCCCO2)OCO3)O[C@H]1c1ccccc1 (stereo not given in full) | > 100 µM (inactive) | > 100 µM (inactive) | > 100 µM (inactive) | > 100 µM (inactive) | > 100 µM (inactive) | > 100 µM (inactive) | > 100 µM (inactive) | > 100 µM (inactive) | > 100 µM (inactive) | > 100 µM (inactive) | > 100 µM (inactive) | > 100 µM (inactive) | > 100 µM (inactive) | > 100 µM (inactive) | > 100 µM (inactive) | > 100 µM (inactive) |  |  |  | 
10 | Cc1c2ccncc2cc2c1sc1ccncc12 | 2.06 µM (inactive) | 4.31 µM (inactive) | 0.845 µM (active) | 8.22 µM (inactive) | 5.5 µM (inactive) | 0.468 µM (active) | 2.51 µM (inactive) | 0.485 µM (active) | 2.14 µM (inactive) | 6.56 µM (inactive) | 5.82 µM (inactive) | 1.68 µM (inactive) | 2 µM (inactive) | 3.8 µM (inactive) | 7.29 µM (inactive) | 3.85 µM (inactive) | 2.39 µM (inactive) | 0.41 µM (active) | 2.67 µM (inactive) | 1.86 µM (inactive)
11 | Cc1c(CC/C(=N\Nc2ccc([N+](=O)[O-])cc2[N+](=O)[O-])c2ccccc2)c2ccccc2n1C | > 100 µM (inactive) | > 100 µM (inactive) | > 100 µM (inactive) | 97.7 µM (inactive) | > 100 µM (inactive) | > 43.2 µM (inactive) | > 100 µM (inactive) | > 100 µM (inactive) | > 100 µM (inactive) | > 100 µM (inactive) | > 100 µM (inactive) | > 100 µM (inactive) | > 100 µM (inactive) | > 56.1 µM (inactive) | > 100 µM (inactive) | > 100 µM (inactive) |  |  |  | 
12 | CN1CCc2ccccc2C(C(=O)c2ccc3c(c2)OCO3)C1=O (stereo not given) | > 100 µM (inactive) | > 100 µM (inactive) | > 100 µM (inactive) | > 100 µM (inactive) | > 100 µM (inactive) | > 100 µM (inactive) | 96.2 µM (inactive) | > 100 µM (inactive) | > 100 µM (inactive) | > 100 µM (inactive) | > 100 µM (inactive) | 53.3 µM (inactive) | > 100 µM (inactive) | > 100 µM (inactive) | > 100 µM (inactive) | 90.2 µM (inactive) |  |  |  | 
13 | CCOC(=O)C(=O)Nc1nc2ccc(C)cc2s1 | 27.9 µM (inactive) | > 100 µM (inactive) | 32.4 µM (inactive) | > 100 µM (inactive) | > 100 µM (inactive) | > 100 µM (inactive) | > 100 µM (inactive) | > 100 µM (inactive) | > 100 µM (inactive) | > 100 µM (inactive) | > 100 µM (inactive) | > 100 µM (inactive) | > 100 µM (inactive) | > 100 µM (inactive) |  | > 100 µM (inactive) |  |  |  | 
14 | CCOC(=O)NNC(=O)NC12CC3CC(CC(C3)C1)C2 | > 100 µM (inactive) | > 100 µM (inactive) | > 100 µM (inactive) | > 100 µM (inactive) | > 100 µM (inactive) | > 100 µM (inactive) | > 100 µM (inactive) | > 100 µM (inactive) | > 100 µM (inactive) | > 100 µM (inactive) | > 100 µM (inactive) | > 100 µM (inactive) | > 100 µM (inactive) | > 100 µM (inactive) | > 100 µM (inactive) | > 100 µM (inactive) |  |  |  | 
15 | COc1cc2noc(-c3ccccc3)c2cc1OC | 29.2 µM (inactive) | 20.2 µM (inactive) | 54.3 µM (inactive) | 44.1 µM (inactive) | 37.4 µM (inactive) | 26.4 µM (inactive) |  | 42.4 µM (inactive) | 36.4 µM (inactive) |  |  | 46.7 µM (inactive) | 34.8 µM (inactive) | 4.59 µM (inactive) | 80.9 µM (inactive) | > 100 µM (inactive) |  |  |  | 
